Measured values published in PubChem BioAssay (NCI).
Where “and” joins values, the source holds several entries; their conditions need not be identical. Equal entries are not always repeated.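 Exposure lasted 48 hours, with cells grown in 96-well plates and compounds tested at five concentrations. GI50 = concentration required for 50% inhibition of growth. TGI denotes the concentration required for complete inhibition of growth.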

Experiments:
Assay in all cases: growth of human tumour cells (NCI), 48 h
HT29 colon = test system: HT29 colon
OVCAR-4 ovarian = test system: OVCAR-4 ovarian
HS 578T breast = test system: HS 578T breast
CAKI-1 renal = test system: CAKI-1 renal
T-47D breast = test system: T-47D breast
NCI-H522 lung = test system: NCI-H522 lung
A549 NSCLC = test system: A549 NSCLC
SF-539 CNS = test system: SF-539 CNS
MDA-MB-435 = test system: MDA-MB-435
OVCAR-5 ovarian = test system: OVCAR-5 ovarian

With `O=C(O)c1ccc2c3c(ncnc13)-c1ccccc1C2=O` the GI50 (HT29 colon) was 3.45 µM, the TGI (HT29 colon) was greater than 28 µM and the GI50 (OVCAR-4 ovarian) was greater than 100 µM. The TGI (OVCAR-4 ovarian) was greater than 100 µM, the GI50 (HS 578T breast) was 1.19 µM and the TGI (HS 578T breast) was 6.28 µM. It also gave a GI50 (CAKI-1 renal) greater than 81.1 µM, a TGI (CAKI-1 renal) greater than 100 µM and a GI50 (T-47D breast) greater than 100 µM. For the same compound, the TGI (T-47D breast) was greater than 100 µM, the GI50 (NCI-H522 lung) was 13.8 µM and the TGI (NCI-H522 lung) was greater than 100 µM. The GI50 (A549 NSCLC) was 2.23 µM, the TGI (A549 NSCLC) was 4.84 µM and the GI50 (SF-539 CNS) was 8.5 µM. The TGI (SF-539 CNS) was greater than 100 µM, the GI50 (MDA-MB-435) was 1.72 µM and the TGI (MDA-MB-435) was 3.59 µM. The GI50 (OVCAR-5 ovarian) was 37.9 µM and the TGI (OVCAR-5 ovarian) was greater than 100 µM.
With `CCOC(=O)NC1=C(N2CC2)C(=O)C(NC(=O)OCC)=C(N2CC2)C1=O` the GI50 (HT29 colon) was 14.5 µM and 9.07 µM, the TGI (HT29 colon) was 25 µM and 47.3 µM and 70.2 µM and the GI50 (OVCAR-4 ovarian) was 12.8 µM and 7 µM. For the same compound, the TGI (OVCAR-4 ovarian) was 24 µM and 11.8 µM and 17.7 µM, the TGI (HS 578T breast) was 24.7 µM and the GI50 (CAKI-1 renal) was 2.53 µM and 3.42 µM. The TGI (CAKI-1 renal) was 13.2 µM and 18.3 µM and 23.7 µM, the TGI (T-47D breast) was 16.8 µM and the GI50 (NCI-H522 lung) was 5.95 µM and 4.17 µM. The TGI (NCI-H522 lung) was 17.5 µM and 9.09 µM and 9.12 µM, the GI50 (A549 NSCLC) was 6.46 µM and 1.64 µM and 3.09 µM and the TGI (A549 NSCLC) was 25 µM and 43 µM and 40.2 µM. The GI50 (SF-539 CNS) was 1.57 µM, the TGI (SF-539 CNS) was 9.51 µM and 9.15 µM and 27.5 µM and the TGI (MDA-MB-435) was 7.28 µM. The GI50 (OVCAR-5 ovarian) was 19.9 µM and 7.01 µM and the TGI (OVCAR-5 ovarian) was 25 µM and 32.6 µM and 35.9 µM.
In the case of `Fc1cccc(CSc2ncnc3c2ncn3C2CCCS2)c1` (configuration not stated), the TGI (HT29 colon) is reported as 32.7 µM, the TGI (OVCAR-4 ovarian) is reported as 83.1 µM and the TGI (HS 578T breast) is reported as greater than 100 µM. For the same compound, the TGI (CAKI-1 renal) was greater than 100 µM, the TGI (T-47D breast) was greater than 100 µM and the TGI (NCI-H522 lung) was 44 µM. It also gave a TGI (A549 NSCLC) greater than 100 µM, a TGI (SF-539 CNS) of 25.8 µM and a TGI (MDA-MB-435) of 38.4 µM. It also gave a TGI (OVCAR-5 ovarian) greater than 100 µM.
In the case of `CN1CCC(C(=O)Nc2n[nH]c3nc(-c4ccc(O)cc4)c(Br)cc23)CC1`, the GI50 (HT29 colon) is reported as 4.11 µM and 5.33 µM, the TGI (HT29 colon) is reported as 12.1 µM and 16.1 µM and the GI50 (OVCAR-4 ovarian) is reported as 0.986 µM and 1.17 µM. For the same compound, the TGI (OVCAR-4 ovarian) was > 12.4 µM and 6.27 µM, the GI50 (HS 578T breast) was 1.15 µM and 0.208 µM and the TGI (HS 578T breast) was greater than 15.1 µM. For the same compound, the GI50 (CAKI-1 renal) was 8.62 µM and 6.77 µM, the TGI (CAKI-1 renal) was greater than 25 µM and the GI50 (T-47D breast) was 1.12 µM and 1.72 µM. For the same compound, the TGI (T-47D breast) was greater than 16.9 µM, the GI50 (NCI-H522 lung) was 0.599 µM and 0.603 µM and the TGI (NCI-H522 lung) was 1.52 µM and 1.62 µM. The GI50 (A549 NSCLC) was 5.72 µM and 7.38 µM, the TGI (A549 NSCLC) was greater than 25 µM and the GI50 (SF-539 CNS) was 0.647 µM and 0.946 µM. The TGI (SF-539 CNS) was 3.23 µM and 8.15 µM, the GI50 (MDA-MB-435) was 1.57 µM and 1.45 µM and the TGI (MDA-MB-435) was 5.58 µM and 5.61 µM. For the same compound, the GI50 (OVCAR-5 ovarian) was 7.83 µM and 10.4 µM and the TGI (OVCAR-5 ovarian) was greater than 25 µM.
`c1cncc(-c2nc3ccccc3s2)c1` showed a GI50 (HT29 colon) greater than 100 µM, a TGI (HT29 colon) greater than 100 µM and a GI50 (OVCAR-4 ovarian) greater than 100 µM. It also gave a TGI (OVCAR-4 ovarian) greater than 100 µM, a GI50 (HS 578T breast) of 50.7 µM and a TGI (HS 578T breast) greater than 100 µM. For the same compound, the GI50 (CAKI-1 renal) was greater than 100 µM, the TGI (CAKI-1 renal) was greater than 100 µM and the GI50 (T-47D breast) was greater than 100 µM. For the same compound, the TGI (T-47D breast) was greater than 100 µM, the GI50 (NCI-H522 lung) was greater than 100 µM and the TGI (NCI-H522 lung) was greater than 100 µM. For the same compound, the GI50 (A549 NSCLC) was greater than 100 µM, the TGI (A549 NSCLC) was greater than 100 µM and the GI50 (SF-539 CNS) was greater than 100 µM. For the same compound, the TGI (SF-539 CNS) was greater than 100 µM, the GI50 (MDA-MB-435) was greater than 100 µM and the TGI (MDA-MB-435) was greater than 100 µM. The GI50 (OVCAR-5 ovarian) was greater than 100 µM and the TGI (OVCAR-5 ovarian) was greater than 100 µM.
Compound `CC(C)[NH-].CC(C)[NH-].O.O.[Cl][Pt+2][Cl]` has a GI50 (HT29 colon) of 12.7 µM, a TGI (HT29 colon) of 83.8 µM and a GI50 (OVCAR-4 ovarian) of 28.7 µM. The TGI (OVCAR-4 ovarian) was 106 µM, the GI50 (HS 578T breast) was 98.8 µM and the TGI (HS 578T breast) was 594 µM. The GI50 (CAKI-1 renal) was 31.3 µM, the TGI (CAKI-1 renal) was 124 µM and the GI50 (T-47D breast) was 50.9 µM. It also gave a TGI (T-47D breast) of 381 µM, a GI50 (NCI-H522 lung) of 20.4 µM and a TGI (NCI-H522 lung) of 74.2 µM. For the same compound, the GI50 (A549 NSCLC) was 33.9 µM, the TGI (A549 NSCLC) was 213 µM and the GI50 (SF-539 CNS) was 47.3 µM. The TGI (SF-539 CNS) was 160 µM, the GI50 (MDA-MB-435) was 26 µM and the TGI (MDA-MB-435) was 76.2 µM. The GI50 (OVCAR-5 ovarian) was 51.1 µM and the TGI (OVCAR-5 ovarian) was 145 µM.
